Like-named read-outs stand apart in the source and are kept apart here.
Test system: 6C3HED lymphosarcoma
Assay: animal or person
Assay type: in vivo, C3H mice
Settings: for Toxic/Total (mice which died relative to total number of animals in the group): mouse, in vivo
Description: The compounds were tested in C3H mice bearing a 6C3HED lymphosarcoma, also known as the Gardner lymphosarcoma (GLS). The 6C3HED lymphosarcoma was obtained from the Division of Cancer Treatment, National Cancer Institute, Tumor Bank, maintained at E. G. and G. Mason Research (Worcester, Massachusetts).
First passage tumor was stored in liquid nitrogen using standard techniques. The transplanted tumor was reestablished from the Tumor Bank every six months or as needed. The tumor was maintained by serial passage twice weekly in C3H mice.
In the procedures utilized here, the tumor was removed from passage animals and minced into 1- to 3-mm cubic fragments using sterile techniques. Tumor pieces were checked for sterility using both Antibiotic Medium 1 and Brain Heart Infusion (Difco, Detroit, Michigan). The tumor pieces were implanted into the recipient C3H mice subcutaneously in an auxillary site by trochar.
Drug therapy on the appropriate schedule was initiated seven days after tumor implantation. The compound being tested was mixed with 2.5% Emulphor EL620 from GAF Corporation (1:40 dilution in 0.9% saline). The total dosage volume for each administration was 0.5 mL. All animals were weighed at the beginning and end of administration of the subject compounds. Food and water were provided ad libitum
Each control group and each dosage level of the treated groups generally consisted of 10 mice selected at random from the pool of implanted animals. The formulations were administered orally by gavage with the use of an 18-gauge needle. Compounds were dosed daily for 10 days.
The tumor was measured five days after treatment ended with two dimensional measurements (width and length) of the tumor taken using digital electronic calipers interfaced to a microcomputer. J. F. Worzalla, et al.. Investicational New Drugs. 8:241-251 (1990). Tumor weights were calculated from these measurements using the following formula:
Tumor weight (mg)=[tumor length (mm)×[tumor width (mm)]2].div.2
At least one control group of an equal number of mice was treated with the same volume of 2.5% Emulphor only. The percent inhibition was determined by subtracting the ratio of the mean tumor size of the test group relative to the control group from one and multiplying the result by 100.
The results of several experiments in mice bearing the 6C3HED lymphosarcoma when the instant compounds were administered orally are provided in the following table. In this table, column 1 gives the example number of the compound of Formula I administered; column 2 gives the dosage level of the compound in milligrams per kilogram of body weight; column 3 describes the percent inhibition of tumor growth; and column 4 tallies the number of mice which died during the course of the experiment relative to the total number of animals in the group.

[1] = Mus musculus, 6C3HED, 120 h, oral gavage, daily for 10 days, tumor measured five days after treatment ended, read-out: Percent Inhibition of tumor growth
[2] = Mus musculus, 6C3HED, 240 h, second listing (groups of 8), oral gavage, daily for 10 days, read-out: Percent Inhibition of tumor growth

Structure (SMILES) | inhibition in vivo at 150 mg/kg [1] [%] | inhibition in vivo at 300 mg/kg [1] [%] | Toxic/Total (mice which died relative to total number of animals in the group) | further results
O=C(Nc1ccc(Cl)cc1)NS(=O)(=O)c1cc2ccccc2[nH]1 [Example 9, N-[[(4-chlorophenyl)amino]carbonyl]-lH-indole-2-sulfonamide] | 26 | 57 |  | 
O=C(Nc1ccc(Br)cc1)NS(=O)(=O)c1cc2ccccc2o1 [Example 4, N-[[(4-bromophenyl)amino]carbonyl]-2-benzofuransulfonamide] | 48 |  | 1/10 | 
O=C(Nc1ccc(Cl)cc1)NS(=O)(=O)c1cc2ccccc2s1 [Example 11, N-[[(4-chlorophenyl)amino]carbonyl]benzo[B]thiophene-2-sulfonamide] | 47 | 66 |  | 
O=C(Nc1ccc(Cl)cc1)NS(=O)(=O)c1ccc2ccoc2c1 [Example 8, N-[[(4-chlorophenyl)amino]carbonyl]-6-benzofuransulfonamide] |  |  |  | inhibition in vivo at 20 mg/kg [1]: 45%; inhibition in vivo at 40 mg/kg [1]: 45%; inhibition in vivo at 80 mg/kg [1]: 93%; inhibition in vivo at 160 mg/kg (Mus musculus, 6C3HED, 120 h, 160 mg/kg, oral gavage, daily for 10 days, tumor measured five days after treatment ended, read-out: Percent Inhibition of tumor growth): 100%; inhibition in vivo at 40 mg/kg [2]: 92%; inhibition in vivo at 80 mg/kg [2]: 98%
Cc1ccc(NC(=O)NS(=O)(=O)c2ccc3occc3c2)cc1 [Example 7, N-[[(4-methylphenyl)amino]carbonyl]-5-benzofuransulfonamide] | 84 | 100 |  | 
O=C(Nc1ccc(Cl)c(Cl)c1)NS(=O)(=O)c1cc2ccccc2o1 [Example 3, N-[[(3,4 dichlorophenyl)amino]carbonyl]-2-benzofuransulfonamide] | 28 | 28 |  | 
O=C(Nc1ccc(Cl)cc1)NS(=O)(=O)c1ccc2sccc2c1 [Example 13, N-[[(4-chlorophenyl)amino]carbonyl]benzo[B]thiophene-5-sulfonamide] |  |  | 0/8 | inhibition in vivo at 40 mg/kg [1]: 8%; inhibition in vivo at 80 mg/kg [1]: 44%
O=C(Nc1ccc(Cl)cc1)NS(=O)(=O)c1csc2ccccc12 [Example 12, N-[[(4-chlorophenyl)amino]carbonyl]benzo[B]thiophene-3-sulfonamide] | 43 | 69 | 0/10 | 
O=C(Nc1ccc(Cl)cc1)NS(=O)(=O)c1ccc2occc2c1 [Example 6, N-[[(4-chlorophenyl)amino]carbonyl]-5-benzofuransulfonamide hemihydrate] | 100 |  |  | inhibition in vivo at 10 mg/kg (Mus musculus, 6C3HED, 120 h, 10 mg/kg, oral gavage, daily for 10 days, tumor measured five days after treatment ended, read-out: Percent Inhibition of tumor growth): 0%; inhibition in vivo at 20 mg/kg [1]: 7%; inhibition in vivo at 40 mg/kg [1]: 53%; inhibition in vivo at 80 mg/kg [1]: 96%
O=C(Nc1ccc(Cl)cc1)NS(=O)(=O)c1cc2ccccc2o1 [Example 1, N-[[(4-chlorophenyl)amino]carbonyl]-2-benzofuransulfonamide] | 84 |  | 4/10 | 
O=C(Nc1ccc(Cl)cc1)NS(=O)(=O)c1cccc2occc12 [Example 5, N-[[(4-chlorophenyl)amino]carbonyl]-4-benzofuransulfonamide] | 84 | 100 |  | 
O=C(Nc1ccc(Cl)cc1)NS(=O)(=O)c1ccc2cc[nH]c2c1 [Example 10, N-[[(4-chlorophenyl)amino]carbonyl]-lH-indole-6-sulfonamide] | 37 | 80 | 0/10 | 
Cc1ccc(NC(=O)NS(=O)(=O)c2cc3ccccc3o2)cc1 [Example 2, N-[[(4-methylphenyl)amino]carbonyl]-2-benzofuransulfonamide] | 11 | 37 | 0/10 | 

Reference: patent publication US5169860A, “Antitumor compositions and methods of treatment” (Eli Lilly and Company, priority 1992, dated 1992)
